{"source": "PubChem BioAssay (NCI)", "assay_in_all_cases": "NCI tumour cell line growth inhibition, 48 h", "key": {"[1]": {"test_system": "SK-OV-3 ovarian"}, "[2]": {"test_system": "M14 melanoma"}, "[3]": {"test_system": "SR leukemia"}, "[4]": {"test_system": "KM12 colon"}, "[5]": {"test_system": "PC-3 prostate"}, "[6]": {"test_system": "SK-MEL-2 melanoma"}, "[7]": {"test_system": "EKVX NSCLC"}, "[8]": {"test_system": "MDA-N"}, "[9]": {"test_system": "DU-145 prostate"}, "[10]": {"test_system": "MALME-3M melanoma"}, "[11]": {"test_system": "UACC-257 melanoma"}, "[12]": {"test_system": "A549 NSCLC"}, "[13]": {"test_system": "HT29 colon"}, "[14]": {"test_system": "NCI-H23 lung"}, "[15]": {"test_system": "TK-10 renal"}}, "note": "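All cell lines were grown in 96-well plates and treated with compound for 48 hours. TGI is the concentration that stops growth completely.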 Where a SMILES comes first, the peptide text is derived from it. [ ]: non-standard residue; d: D form. ΔPro = O=C(O)[CH]1C=CCN1"}
{"smiles": "CN(C)c1ccc(C=Nc2ccc(-c3nc4ccccc4s3)cc2)cc1", "values": [{"measurement": "TGI", "setting": "[1]", "value": "> 100", "unit": "µM"}, {"measurement": "TGI", "setting": "[2]", "value": "> 100", "unit": "µM"}, {"measurement": "TGI", "setting": "[3]", "value": "> 100", "unit": "µM"}, {"measurement": "TGI", "setting": "[4]", "value": "> 100", "unit": "µM"}, {"measurement": "TGI", "setting": "[5]", "value": 71.5, "unit": "µM"}, {"measurement": "TGI", "setting": "[6]", "value": 58.9, "unit": "µM"}, {"measurement": "TGI", "setting": "[7]", "value": "> 100", "unit": "µM"}, {"measurement": "TGI", "setting": "[8]", "value": "> 100", "unit": "µM"}, {"measurement": "TGI", "setting": "[9]", "value": "> 100", "unit": "µM"}, {"measurement": "TGI", "setting": "[10]", "value": 95.7, "unit": "µM"}, {"measurement": "TGI", "setting": "[11]", "value": 82.8, "unit": "µM"}, {"measurement": "TGI", "setting": "[12]", "value": "> 100", "unit": "µM"}, {"measurement": "TGI", "setting": "[13]", "value": "> 100", "unit": "µM"}, {"measurement": "TGI", "setting": "[14]", "value": 97.6, "unit": "µM"}, {"measurement": "TGI", "setting": "[15]", "value": 75.8, "unit": "µM"}]}
{"smiles": "CC(C)(C)OC(=O)N(O)[C@@H]1CC[C@H](n2cnc3c(N)ncnc32)C1", "values": [{"measurement": "TGI", "setting": "[1]", "value": "> 100", "unit": "µM"}, {"measurement": "TGI", "setting": "[2]", "value": "> 100", "unit": "µM"}, {"measurement": "TGI", "setting": "[3]", "value": "> 100", "unit": "µM"}, {"measurement": "TGI", "setting": "[4]", "value": "> 100", "unit": "µM"}, {"measurement": "TGI", "setting": "[5]", "value": "> 100", "unit": "µM"}, {"measurement": "TGI", "setting": "[6]", "value": "> 100", "unit": "µM"}, {"measurement": "TGI", "setting": "[7]", "value": "> 100", "unit": "µM"}, {"measurement": "TGI", "setting": "[8]", "value": "> 100", "unit": "µM"}, {"measurement": "TGI", "setting": "[9]", "value": "> 100", "unit": "µM"}, {"measurement": "TGI", "setting": "[10]", "value": "> 100", "unit": "µM"}, {"measurement": "TGI", "setting": "[11]", "value": "> 100", "unit": "µM"}, {"measurement": "TGI", "setting": "[12]", "value": "> 100", "unit": "µM"}, {"measurement": "TGI", "setting": "[13]", "value": "> 100", "unit": "µM"}, {"measurement": "TGI", "setting": "[14]", "value": "> 100", "unit": "µM"}, {"measurement": "TGI", "setting": "[15]", "value": "> 100", "unit": "µM"}]}
{"smiles": "O=C(O)C1C=CCN1C(=O)C1C=CCN1C(=O)C1C=CCN1", "note": "(configuration not stated) (H-[ΔPro]-[ΔPro]-[ΔPro]-OH; configuration not given here)", "values": [{"measurement": "TGI", "setting": "[1]", "value": "> 100", "unit": "µM"}, {"measurement": "TGI", "setting": "[2]", "value": "> 100", "unit": "µM"}, {"measurement": "TGI", "setting": "[3]", "value": "> 100", "unit": "µM"}, {"measurement": "TGI", "setting": "[4]", "value": "> 100", "unit": "µM"}, {"measurement": "TGI", "setting": "[5]", "value": "> 100", "unit": "µM"}, {"measurement": "TGI", "setting": "[6]", "value": "> 100", "unit": "µM"}, {"measurement": "TGI", "setting": "[7]", "value": "> 100", "unit": "µM"}, {"measurement": "TGI", "setting": "[8]", "value": "> 100", "unit": "µM"}, {"measurement": "TGI", "setting": "[9]", "value": "> 100", "unit": "µM"}, {"measurement": "TGI", "setting": "[10]", "value": "> 100", "unit": "µM"}, {"measurement": "TGI", "setting": "[11]", "value": "> 100", "unit": "µM"}, {"measurement": "TGI", "setting": "[12]", "value": "> 100", "unit": "µM"}, {"measurement": "TGI", "setting": "[13]", "value": "> 100", "unit": "µM"}, {"measurement": "TGI", "setting": "[14]", "value": "> 100", "unit": "µM"}, {"measurement": "TGI", "setting": "[15]", "value": "> 100", "unit": "µM"}]}
{"smiles": "c1ccc2sc(SSSc3nc4ccccc4s3)nc2c1", "values": [{"measurement": "TGI", "setting": "[1]", "value": "> 100", "unit": "µM"}, {"measurement": "TGI", "setting": "[2]", "value": "> 100", "unit": "µM"}, {"measurement": "TGI", "setting": "[3]", "value": "> 100", "unit": "µM"}, {"measurement": "TGI", "setting": "[4]", "value": "> 100", "unit": "µM"}, {"measurement": "TGI", "setting": "[5]", "value": "> 100", "unit": "µM"}, {"measurement": "TGI", "setting": "[6]", "value": "> 100", "unit": "µM"}, {"measurement": "TGI", "setting": "[7]", "value": "> 100", "unit": "µM"}, {"measurement": "TGI", "setting": "[8]", "value": "> 100", "unit": "µM"}, {"measurement": "TGI", "setting": "[9]", "value": "> 100", "unit": "µM"}, {"measurement": "TGI", "setting": "[10]", "value": "> 100", "unit": "µM"}, {"measurement": "TGI", "setting": "[11]", "value": "> 100", "unit": "µM"}, {"measurement": "TGI", "setting": "[12]", "value": "> 100", "unit": "µM"}, {"measurement": "TGI", "setting": "[13]", "value": "> 100", "unit": "µM"}, {"measurement": "TGI", "setting": "[14]", "value": "> 100", "unit": "µM"}, {"measurement": "TGI", "setting": "[15]", "value": "> 100", "unit": "µM"}]}
{"smiles": "[N-]=[N+]=NC1C(O)C(CO)OC1n1ccc(N)nc1=O", "note": "(configuration not stated)", "values": [{"measurement": "TGI", "setting": "[1]", "value": "> 625", "unit": "µM"}, {"measurement": "TGI", "setting": "[2]", "value": 186, "unit": "µM"}, {"measurement": "TGI", "setting": "[3]", "value": 296, "unit": "µM"}, {"measurement": "TGI", "setting": "[4]", "value": "> 625", "unit": "µM"}, {"measurement": "TGI", "setting": "[5]", "value": "> 625", "unit": "µM"}, {"measurement": "TGI", "setting": "[6]", "value": "> 585", "unit": "µM"}, {"measurement": "TGI", "setting": "[7]", "value": "> 625", "unit": "µM"}, {"measurement": "TGI", "setting": "[8]", "value": "> 625", "unit": "µM"}, {"measurement": "TGI", "setting": "[9]", "value": "> 625", "unit": "µM"}, {"measurement": "TGI", "setting": "[10]", "value": "> 625", "unit": "µM"}, {"measurement": "TGI", "setting": "[11]", "value": "> 625", "unit": "µM"}, {"measurement": "TGI", "setting": "[12]", "value": "> 625", "unit": "µM"}, {"measurement": "TGI", "setting": "[13]", "value": "> 625", "unit": "µM"}, {"measurement": "TGI", "setting": "[14]", "value": "> 625", "unit": "µM"}, {"measurement": "TGI", "setting": "[15]", "value": "> 625", "unit": "µM"}]}
{"smiles": "S=C1NC2=C(CSC/C2=C\\c2ccc(Cl)cc2)C(c2ccc(Cl)cc2)N1", "note": "(configuration not stated)", "values": [{"measurement": "TGI", "setting": "[1]", "value": "> 100", "unit": "µM"}, {"measurement": "TGI", "setting": "[3]", "value": "> 100", "unit": "µM"}, {"measurement": "TGI", "setting": "[4]", "value": "> 100", "unit": "µM"}, {"measurement": "TGI", "setting": "[5]", "value": "> 100", "unit": "µM"}, {"measurement": "TGI", "setting": "[6]", "value": "> 100", "unit": "µM"}, {"measurement": "TGI", "setting": "[7]", "value": "> 100", "unit": "µM"}, {"measurement": "TGI", "setting": "[8]", "value": "> 100", "unit": "µM"}, {"measurement": "TGI", "setting": "[9]", "value": "> 100", "unit": "µM"}, {"measurement": "TGI", "setting": "[10]", "value": 71.3, "unit": "µM"}, {"measurement": "TGI", "setting": "[11]", "value": "> 100", "unit": "µM"}, {"measurement": "TGI", "setting": "[12]", "value": "> 100", "unit": "µM"}, {"measurement": "TGI", "setting": "[13]", "value": "> 100", "unit": "µM"}, {"measurement": "TGI", "setting": "[14]", "value": "> 100", "unit": "µM"}, {"measurement": "TGI", "setting": "[15]", "value": "> 100", "unit": "µM"}]}
{"smiles": "CN1CCN(c2cc3nc(-c4ccc(Cl)cc4)[nH]c3cc2F)CC1", "values": [{"measurement": "TGI", "setting": "[1]", "value": 59.5, "unit": "µM"}, {"measurement": "TGI", "setting": "[2]", "value": 8.4, "unit": "µM"}, {"measurement": "TGI", "setting": "[3]", "value": "> 100", "unit": "µM"}, {"measurement": "TGI", "setting": "[4]", "value": "> 45.2", "unit": "µM"}, {"measurement": "TGI", "setting": "[5]", "value": 40.8, "unit": "µM"}, {"measurement": "TGI", "setting": "[6]", "value": 34.5, "unit": "µM"}, {"measurement": "TGI", "setting": "[7]", "value": 72.3, "unit": "µM"}, {"measurement": "TGI", "setting": "[8]", "value": 50.4, "unit": "µM"}, {"measurement": "TGI", "setting": "[9]", "value": 83.3, "unit": "µM"}, {"measurement": "TGI", "setting": "[10]", "value": 23.4, "unit": "µM"}, {"measurement": "TGI", "setting": "[11]", "value": 26.2, "unit": "µM"}, {"measurement": "TGI", "setting": "[12]", "value": "> 59", "unit": "µM"}, {"measurement": "TGI", "setting": "[14]", "value": 34.2, "unit": "µM"}, {"measurement": "TGI", "setting": "[15]", "value": 15.4, "unit": "µM"}]}
{"smiles": "O=C(c1cscc1CCc1ccccc1)c1cscc1CCc1ccccc1", "values": [{"measurement": "TGI", "setting": "[1]", "value": "> 100", "unit": "µM"}, {"measurement": "TGI", "setting": "[2]", "value": "> 100", "unit": "µM"}, {"measurement": "TGI", "setting": "[3]", "value": "> 100", "unit": "µM"}, {"measurement": "TGI", "setting": "[4]", "value": "> 100", "unit": "µM"}, {"measurement": "TGI", "setting": "[5]", "value": "> 100", "unit": "µM"}, {"measurement": "TGI", "setting": "[6]", "value": "> 100", "unit": "µM"}, {"measurement": "TGI", "setting": "[7]", "value": "> 100", "unit": "µM"}, {"measurement": "TGI", "setting": "[8]", "value": "> 100", "unit": "µM"}, {"measurement": "TGI", "setting": "[9]", "value": "> 100", "unit": "µM"}, {"measurement": "TGI", "setting": "[10]", "value": "> 100", "unit": "µM"}, {"measurement": "TGI", "setting": "[11]", "value": "> 100", "unit": "µM"}, {"measurement": "TGI", "setting": "[12]", "value": "> 100", "unit": "µM"}, {"measurement": "TGI", "setting": "[14]", "value": "> 100", "unit": "µM"}, {"measurement": "TGI", "setting": "[15]", "value": "> 100", "unit": "µM"}]}
